ChEMBL document CHEMBL1201862, “PubChem BioAssay data set” (2004)
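Step 1: Grow cells in 96-well plates. Step 2: Expose to compound for 48 hours at 5 concentrations. Step 3: Interpolate endpoints linearly; if unreached, use highest concentration. GI50 marks 50% less growth.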 Activity calls are given as the source filed them. Cut-off read from the data, not from the text of the source: active = GI50 up to about 1.1 µM and inactive = higher.

What was measured:
Test in all cases: growth of human tumour cells (NCI), 48 h
[1] = test system: NCI-H460
[2] = test system: OVCAR-5
[3] = test system: SNB-19
[4] = test system: K562
[5] = test system: U-251
[6] = test system: Malme-3M
[7] = test system: NCI-H23
[8] = test system: UACC-62
[9] = test system: CAKI-1
[10] = test system: SK-MEL-28
[11] = test system: RXF 393
[12] = test system: A498
[13] = test system: IGROV-1
[14] = test system: A549
[15] = test system: TK-10
[16] = test system: KM12
[17] = test system: NCI-H226
[18] = test system: HOP-62
[19] = test system: SF-539
[20] = test system: COLO 205

SMILES: O=C(O)c1cccc(/N=N/c2c(S(=O)(=O)O)ccc3c2C(=O)c2ccccc2C3=O)c1O
- GI50 [1]: > 100 µM (inactive)
- GI50 [2]: > 100 µM (inactive)
- GI50 [3]: > 100 µM (inactive)
- GI50 [4]: > 100 µM (inactive)
- GI50 [5]: > 100 µM (inactive)
- GI50 [6]: 54.6 µM (inactive)
- GI50 [7]: > 100 µM (inactive)
- GI50 [8]: > 100 µM (inactive)
- GI50 [9]: > 100 µM (inactive)
- GI50 [10]: > 100 µM (inactive)
- GI50 [11]: > 100 µM (inactive)
- GI50 [12]: > 100 µM (inactive)
- GI50 [13]: > 100 µM (inactive)
- GI50 [14]: > 100 µM (inactive)
- GI50 [15]: > 100 µM (inactive)
- GI50 [16]: > 100 µM (inactive)
- GI50 [17]: > 100 µM (inactive)
- GI50 [18]: > 100 µM (inactive)
- GI50 [19]: > 100 µM (inactive)
- GI50 [20]: > 100 µM (inactive)

SMILES: CCN(CC)CCOc1ccc(/C=C(\C#N)c2ccc(OCCN(CC)CC)cc2)cc1
- GI50 [1]: 18.1 µM (inactive)
- GI50 [2]: 11.6 µM (inactive)
- GI50 [3]: 36.4 µM (inactive)
- GI50 [4]: 3.37 µM (inactive)
- GI50 [5]: 13.5 µM (inactive)
- GI50 [6]: 14.5 µM (inactive)
- GI50 [7]: 17.3 µM (inactive)
- GI50 [8]: 16.6 µM (inactive)
- GI50 [9]: > 43.7 µM (inactive)
- GI50 [10]: 16.5 µM (inactive)
- GI50 [11]: 12.4 µM (inactive)
- GI50 [12]: 16.9 µM (inactive)
- GI50 [13]: 22.7 µM (inactive)
- GI50 [14]: 19.1 µM (inactive)
- GI50 [15]: > 59.7 µM (inactive)
- GI50 [16]: 10.7 µM (inactive)
- GI50 [17]: 39.4 µM (inactive)
- GI50 [18]: 10.6 µM (inactive)
- GI50 [19]: 7.64 µM (inactive)
- GI50 [20]: 10.8 µM (inactive)

SMILES: CCOC(=O)CSc1nc(N)c2c(-c3ccccc3)c3c(nc2n1)CCCC3
- GI50 [1]: > 100 µM (inactive)
- GI50 [2]: > 100 µM (inactive)
- GI50 [3]: > 100 µM (inactive)
- GI50 [4]: > 100 µM (inactive)
- GI50 [5]: > 100 µM (inactive)
- GI50 [6]: > 100 µM (inactive)
- GI50 [7]: > 100 µM (inactive)
- GI50 [8]: > 100 µM (inactive)
- GI50 [9]: > 100 µM (inactive)
- GI50 [10]: > 100 µM (inactive)
- GI50 [11]: > 100 µM (inactive)
- GI50 [12]: > 100 µM (inactive)
- GI50 [13]: > 100 µM (inactive)
- GI50 [14]: > 100 µM (inactive)
- GI50 [15]: > 100 µM (inactive)
- GI50 [16]: > 100 µM (inactive)
- GI50 [17]: > 100 µM (inactive)
- GI50 [18]: > 100 µM (inactive)
- GI50 [19]: > 100 µM (inactive)
- GI50 [20]: > 100 µM (inactive)

SMILES: O=C1N[C@@H]([C@H]2CC[C@H](Cl)CN2)C(=O)N[C@H]1[C@H]1CC[C@H](Cl)CN1
- GI50 [1]: 0.116 µM (active)
- GI50 [2]: 1.25 µM (inactive)
- GI50 [3]: 1.37 µM (inactive)
- GI50 [4]: 1.39 µM (inactive)
- GI50 [5]: 0.406 µM (active)
- GI50 [6]: 0.836 µM (active)
- GI50 [7]: 0.292 µM (active)
- GI50 [8]: 0.137 µM (active)
- GI50 [9]: 0.261 µM (active)
- GI50 [10]: 4.32 µM (inactive)
- GI50 [11]: 2.04 µM (inactive)
- GI50 [12]: 2.63 µM (inactive)
- GI50 [13]: 4.34 µM (inactive)
- GI50 [14]: 0.248 µM (active)
- GI50 [15]: 4.42 µM (inactive)
- GI50 [16]: 3.3 µM (inactive)
- GI50 [17]: 1.04 µM (active)
- GI50 [18]: 0.28 µM (active)
- GI50 [19]: 0.357 µM (active)
- GI50 [20]: 1.99 µM (inactive)

SMILES: Cc1cn(C2CC(O)C(COP(=O)(O)OC3CC(n4c[n+]([BH2-]C#N)c5c(=O)[nH]c(N)nc54)OC3CO)O2)c(=O)[nH]c1=O (stereo not given)
- GI50 [1]: > 100 µM (inactive)
- GI50 [2]: > 100 µM (inactive)
- GI50 [3]: > 100 µM (inactive)
- GI50 [4]: > 100 µM (inactive)
- GI50 [5]: > 100 µM (inactive)
- GI50 [6]: > 100 µM (inactive)
- GI50 [7]: > 100 µM (inactive)
- GI50 [8]: > 100 µM (inactive)
- GI50 [9]: > 100 µM (inactive)
- GI50 [10]: > 100 µM (inactive)
- GI50 [11]: > 100 µM (inactive)
- GI50 [12]: > 100 µM (inactive)
- GI50 [13]: > 100 µM (inactive)
- GI50 [14]: > 100 µM (inactive)
- GI50 [15]: > 100 µM (inactive)
- GI50 [16]: > 100 µM (inactive)
- GI50 [17]: > 100 µM (inactive)
- GI50 [18]: > 100 µM (inactive)
- GI50 [19]: > 100 µM (inactive)
- GI50 [20]: > 100 µM (inactive)
